{
  "source": "patent US9895370B2",
  "about": "“Pharmaceutical composition for preventing or treating of cirrhosis of liver comprising G protein coupled receptor 119 ligand as an active ingredient” (DONGGUK UNIVERSITY INDUSTRY—ACADEMIC COOPERATION FOUNDATION, priority 2015, dated 2018)",
  "key": {"[1]": {"test_system": "cAMP/PKA (cyclic AMP/Protein kinase A)", "assay": "activation of GPR119 signaling pathway cAMP/PKA, with PKA inhibitor H-89", "type": "cell-based", "settings": "FIG. 4a", "experimental": "First, when a PKA inhibitor H-89 was treated, a change in action of the GPR119 ligand was examined."}, "human HSC line LX-2": {"test_system": "human HSC line LX-2", "assay": "TGFβ1-inducible collagen I and TGFβ expression in LX-2", "type": "cell-based", "experimental": "(§1) A human HSC line (LX-2, Milipore, U.S.A.) was plated in a 6-well plate, and grown to confluency in DMEM supplemented with 1% penicillin-streptomycin (Hyclone, U.S.A.) and 2% fetal bovine serum (Hyclone, U.S.A.) at 37° C. in a 5% CO2 incubator. For a further experiment, the confluent HSC line was incubated in an FBS-free medium, instead of the 2% FBS-added medium.\nTotal RNA ([…]) extracted from cells using Trizol and a Maxime RT PreMix Kit (iNtRON Biotechnology, Gyeonggi-do, Korea) was used to obtain cDNA. For RT-PCR, a target gene was amplified by PCR using a Maxime™ PCR PreMix Kit according to the manufacturer's instructions, and subjected to electrophoresis in a 2% agrose gel, thereby identifying the amplified PCR product.\nMeanwhile, for real-time RT-qPCR, the synthesized cDNA was assessed in a CFX Connect™ Real-Time PCR Detection System (Bio-Rad Laboratories, CA, USA) instrument using a SYBR green dye (Bio-Rad). The CP value of the gene was calibrated with the CP value of S 18r gene. Also, through a melting curve analysis, specificity of the amplified PCR product was confirmed.\nSodium dodecylsulfate-polyacrylamide gel electrophoresis (SDS-PAGE) was performed using a gel electrophoresis device (Mighty Small SE 250, Hoefer Scientific Instruments, San Francisco) according to the method established by the inventors. A lysed cell fraction was diluted with a sample dilution buffer [63 mM Tris (pH. 6.8), 10% glycerol, 2% SDS, 0.0013% bromophenol blue, 5% β-mercaptoethanol], and subjected to electrophoresis in an electrode buffer (15 g Tris, 72 g glycerin and 5 g SDS contained in an 1 L solution) using a 8-12% gel. After electrophoresis, the gel was transferred to a nitrocellulose membrane to transfer proteins using an electrophoresis device for transfer in a transfer buffer (25 mM Tris, 192 mM glycerin, 20% v/v methanol (pH. 8.3)] at 40 mA for 3 hours. The nitrocellulose membrane was reacted with first antibodies, reacted with horseradish peroxidase-conjugated goat anti-rabbit IgG and horseradish peroxidase-conjugated goat anti-mouse IgG as secondary antibodies for 1 hour, and visualized using an ECL chemiluminescence system (Amersham, Gaithesberg, Mass.).\nA critical cytokine having an influence on the induction of liver fibrosis, TGFβ1, is a potent fibrosis stimulation factor for HSCs. To examine the expression of a liver fibrosis-inducing factor which was increased when the human liver cell line LX-2, cultured by method D was treated with TGFβ1, changes in expression according to the treatment with GPR119 ligands (MBX-2982, GSK1292263) were assessed by the methods described in G and H, thereby observing the effect of the GPR119 ligands."}, "Smad2/Smad3": {"test_system": "Smad2/Smad3", "assay": "TGFβ1-elevated Smad2/Smad3 phosphorylation and nuclear translocation in LX-2", "type": "cell-based, human", "experimental": "as §1\nA whole cell lysate and a nuclear fraction were separated according to a conventional method. More specifically, the whole cell lysate was obtained by lysing cells washed with phosphate buffered saline (PBS) with a lysis buffer [10 mM Tris-HCl (pH 7.1), 100 mM NaCl, 1 mM EDTA, 10% glycerol, 0.5% Triton X-100, 0.5% Nonidet P-40, 1 mM dithiothreitol and 0.5 mM phenylmethylsulfonyl fluoride (PMSF)] at 4° C. for 30 minutes, and centrifuging the resulting solution at 14,000×g for 15 minutes to obtain a supernatant. To obtain the nuclear fraction, a low-osmotic pressure buffer containing 10 mM HEPES (pH 7.9), 10 mM KCl, 0.1 mM EDTA, 1 mM DTT and 0.5 mM PMSF was added and reacted at 4° C. for 10 minutes. Following addition of 10% Nonidet P-40 and vortexing for 10 seconds, the supernatant obtained by centrifugation at 13,000 rpm for 3 minutes was removed, and the remaining precipitate was washed three times with a low-osmotic pressure buffer. The precipitate was mixed with a high-osmotic pressure buffer [20 mM HEPES (pH 7.9), 400 mM NaCl, 1 mM EDTA, 1 mM DTT and 1 mM PMSF] and vortexed again at 4° C. for 10 minutes to induce a reaction for 20 minutes. Following centrifugation at 13,000 rpm for 10 minutes, a supernatant was obtained to be used as a nuclear fraction. A protein concentration was quantified using a protein quantify kit of PRO-MEASURE™ protein measurement solution (iNtRON Biotechnology, South Korea) according to the Bradford assay.\nSodium dodecylsulfate-polyacrylamide gel electrophoresis (SDS-PAGE) was performed using a gel electrophoresis device (Mighty Small SE 250, Hoefer Scientific Instruments, San Francisco) according to the method established by the inventors. […]"}, "[2]": {"test_system": "peptidyl prolyl isomerase (Pin1)", "assay": "Pin1 expression in LX-2", "type": "cell-based, human", "settings": "FIG. 5b", "experimental": "as §1\nAccording to existing reports, as a core factor participating in cell proliferation by PDGF, peptidyl prolyl isomerase (Pin1) is known. Therefore, Pin1 relevance with respect to the GPR119 ligand action was evaluated."}, "[3]": {"test_system": "C57BL/6 mice with liver fibrosis induced by carbon tetrachloride", "assay": "carbon tetrachloride (CCl4)-induced liver fibrosis animal model", "type": "in vivo, mouse", "experimental": "6-week-old male C57BL/6J mice (Joongang laboratory animal, Seoul) were acclimated in a laboratory environment for 1 week with solid feed, and randomly arranged in control groups and experimental groups according to randomized block design. Then, carbon tetrachloride (1 ml/kg) was administered to 6-week-old male C57BL/6 mice (Joongang laboratory animal, Seoul) twice a week for three weeks to induce liver fibrosis, and a GPR119 ligand (10 mg/kg) suspended in 40% PEG400 was orally administered thereto once a day for five days per week. For liver fibrosis models induced by dimethylnitrosamine (DMN), DMN (10 mg/kg) was administered to mice three times a week to induce liver fibrosis. As the control group, a vehicle-treated group was used. After termination of the experiment, the laboratory animals were fasted for 12 hours or more, and anesthetized with Zoletil to obtain blood and the liver, and the liver was washed with 0.1 M phosphate buffered saline (PBS; pH 7.4) and weighed. The blood obtained from the abdominal aorta was centrifuged in an SST tube at 3000×RPM for 20 minutes to isolate the serum.\nFor the above-mentioned laboratory animals, serum alanine transaminase (ALT), aspartate transaminase (AST), total bilirubin (T-BIL) and direct bilirubin (D-BIL) were analyzed using an automated hematology analyzer, Spectrum [(Abbott Laboratories, Abbott Park, Ill.)].\nThe liver samples obtained as described above were prepared into sections, and the tissue section was fixed with 10% buffered neutral formalin and embedded in paraffin. Afterward, the resulting section was sliced to a 4-μm thickness, and put on a slide to fix a specimen, stained with sirius red, and observed using an optical microscope.\nA predetermined amount of liver tissue was homogenized in a mortar with liquid nitrogen and a lysis buffer, and the resulting tissue solution was transferred into a new tube and then vortexed. The tissue solution was centrifuged at 14,000 rpm and 4° C. for 20 minutes, and the intermediate layer was extracted to quantify a protein by a Bradford method. 30 μg of proteins were analyzed by electrophoresis using an SDS polyacrylamide gel, and the change of protein expression was analyzed by western blot.\nTo examine improvement of liver fibrosis by the GPR119 ligand, in an animal model having liver fibrosis induced by carbon tetrachloride (CCl4), an effect of the GPR119 ligand on inhibiting liver fibrosis was observed.\nFirst, 1 ml/kg of carbon tetrachloride was intraperitoneally administered twice a week, and also orally administered with the GPR119 ligand (MBX-2982) at doses of 20 and 40 mg/kg, respectively, once a day for 5 days a week. Three weeks later, liver tissue was extracted, subjected to sirius red staining for confirming collagen production and immunohistochemical staining for confirming expression of a HSC activation marker, that is, α-SMA, and then compared with a control group and a carbon tetrachloride only-treated group."}, "[4]": {"settings": "LX-2 treated with TGFβ1, FIGS. 2c, 2d"}, "[5]": {"settings": "40 mg/kg oral once a day 5 days a week, 3 weeks, FIG. 3a"}, "[6]": {"settings": "40 mg/kg, western blot, FIG. 3c"}},
  "data": [
    {"molecule": "CCc1cnc(N2CCC(c3nc(COc4ccc(-n5cnnn5)cc4)cs3)CC2)nc1", "note": "[MBX-2982, 4-((4-(1H-tetrazol-1-yl)phenoxy)methyl)-2-(1-(5-ethylpyrimidin-2-yl)piperidin-4-yl)thiazole]", "values": [
      {"measurement": "cAMP activation", "setting": "[1]", "value": "observed"},
      {"measurement": "action on inhibiting collagen I and TGFβ expression when PKA inhibitor H-89 was treated", "setting": "[1]; with H-89", "value": "not offset"},
      {"measurement": "expression of TGFβ1-inducible liver fibrosis inducing factors (collagen I, TGFβ) with compound C / DN-AMPK", "setting": "human HSC line LX-2; AMPK inhibitor compound C treated, DN-AMPK transduced, FIG. 4c", "value": "inhibitory effect"},
      {"measurement": "inhibitory effect on collagen I and TGFβ expression under overexpression of Pin1", "setting": "human HSC line LX-2; LX-2 transduced with Pin1 adenovirus, TGFβ1, FIG. 5c", "value": "reversed"},
      {"measurement": "expression of TGFβ1-inducible TGFβ", "setting": "human HSC line LX-2; [4]", "value": "inhibited"},
      {"measurement": "expression of TGFβ1-inducible collagen I", "setting": "human HSC line LX-2; [4]", "value": "inhibited"},
      {"measurement": "nuclear translocation of Smad2/Smad3 elevated by TGFβ1", "setting": "Smad2/Smad3; LX-2, FIG. 2e", "value": "inhibited"},
      {"measurement": "phosphorylation of Smad2/Smad3 elevated by TGFβ1", "setting": "Smad2/Smad3; LX-2, FIG. 2e", "value": "inhibited"},
      {"measurement": "inhibitory action on phosphorylation of Smad3 activated by TGFβ1, under AMPK inhibition", "setting": "Smad2/Smad3; compound C / DN-AMPK, FIG. 4d", "value": "partially recovered by AMPK inhibition, but not completely offset"},
      {"measurement": "Pin1 expression", "setting": "[2]", "value": "time-dependently reduced"},
      {"measurement": "collagen production (sirius red staining) in liver tissue", "setting": "[3]; [5]", "value": "significantly reduced"},
      {"measurement": "α-SMA expression (immunohistochemical staining) in liver tissue", "setting": "[3]; [5]", "value": "significantly reduced"},
      {"measurement": "amount of hydroxyproline", "setting": "[3]; 40 mg/kg oral, FIG. 3b", "value": "statistically significantly reduced"},
      {"measurement": "expression of TGFβ protein in liver tissue", "setting": "[3]; [6]", "value": "statistically significantly inhibited"},
      {"measurement": "expression of collagen I protein in liver tissue", "setting": "[3]; [6]", "value": "statistically significantly inhibited"},
      {"measurement": "expression of α-SMA protein in liver tissue", "setting": "[3]; [6]", "value": "statistically significantly inhibited"},
      {"measurement": "ALT", "setting": "[3]; blood, CCl4 + MBX 20 (20 mg/kg oral)", "value": 38.55, "unit": "U/L"}
    ]}
  ]
}
